According to patent publication US20060263368A1, “Targeted chimeric molecules for cancer therapy” (Research Development Foundation, priority 2005, published 2006):

Legend:
Capan-1 = test: In vitro cytotoxicity and combination study, crystal violet; type: cell-based, human; details: 72 hr of exposure
Text: (§1) If CI near to 1 indicates additive effect (ADD), CI>1 indicates antagonism (ANT), CI<1 indicates synergism (SYN).

AsPc-1 = test: as above; type: cell-based, human; details: 72 hr of exposure
Text: as §1

Capan-2 = test: as above; type: cell-based, human; details: 72 hr of exposure
Text: as §1

L3.6pl = test: as above; type: cell-based, human; details: 72 hr of exposure
Text: as §1

[1] = test system: AsPc-1, Capan-1, Capan-2, and L3.6pl; test: cells; details: Homo sapiens, Pancreatic cancer cell
Procedure: (§4) To examine the potential mediation of the synergistic effect of combination treatments by activation of caspase-3 cells were pretreated with or without 100 μM caspase-3 inhibitor (Ac-DEVD-CHO) for 3 hr and then treated with their individual IC25 concentrations. After incubation for an additional 72 hr, remaining adherent cells were stained by adding 50 μl of crystal violet solution (0.5% w/v in 20% MeOH/H2O). Dye-stained cells were solubilized by addition of 100 μl of Sorenson's buffer [100 mM sodium citrate (pH 4.2) in 50% ethanol], and absorbance was measured at 630 nm using an ELISA plate reader (Bio-Tek Instruments, Inc., Winooski, Vt.).

A375-M Cells = test: Combination studies of GrB/scFvMEL with chemotherapeutic agents; details: for antitumor activity on co-administration with GrB/scFvMEL: 72 hours
Procedure: Cells in exponential growth phase were plated into 96-well plates. After 24 hr, the cells were treated with drug-containing medium. At the end of the indicated incubation period, growth inhibition was assessed by crystal violet staining. In order to determine the effects of sequencing, cells were treated with different two sequences.
I.C.25 dose of either GrB/scFvMEL or chemotherapeutic agents have been used in combination studies.

L3.6pl cells = test: Western blot of signal transduction effects; type: cell-based, human; parameters: key to Caspase-8 cleavage / Caspase-3 cleavage / PARP cleavage / Akt / p-Akt / Bcl-2: NE represents no effect; details: IC25 doses
Procedure: Cell lysates ([…]) were fractionated by 8-15% SDS-PAGE and transferred on Immobilon-P nitrocellulose membranes (Schleicher & Schuell Inc., Keene, N.H.). Membranes were blocked for 2 hours in Tris-buffered saline (TBS) containing 3% bovine serum albumin. Monoclonal anti-HER-2/neu Ab (Oncogene Research Products, San Diego, Calif.), rabbit polyclonal anti-HER-1 Ab, rabbit polyclonal anti-TNFR-1 Ab, rabbit polyclonal anti-TNFR-2 Ab, rabbit polyclonal anti-phospho Akt Ab, rabbit polyclonal anti-Akt, and goat anti-β-actin Ab were used for immunoblotting. Goat anti-mouse/goat anti-rabbit or swain anti-goat antibodies conjugated with horseradish peroxidase (Bio-Rad Laboratories, Hercules, Calif.) were used to visualize immunoreactive proteins at a 1:4000 dilution using ECL detection reagent (Amersham Pharmacia Biotech Inc., Piscataway, N.J.).
HER-2/neu over-expression results in activation of different downstream pathways such as the Akt kinase pathway, which leads to cell proliferation and cell survival. […] The activation of Akt kinase was then assessed by Western blot analysis using antibodies to Akt and to phospho-Akt. […]
To determine whether caspase-8 and caspase-3 were activated in L3.6pl cells during 5-FU+scFv23/TNF-induced cell death, the cleavage of caspase-8, caspase-3, and its substrate poly (ADP)-ribose polymerase (PARP) was investigated.

[2] = test system: AsPc-1, Capan-1, Capan-2, and L3.6pl; details: pancreatic cancer cell lines
Procedure: as §4

[3] = target: gp240 antigen (high-molecular-weight glycoprotein gp240 on human melanoma cells) (human) (UniProt Q6UVK1); test: cell-based or functional assay
gp240 antigen (high-molecular-weight glycoprotein gp240 on human melanoma cells) (human), sequence (Q6UVK1 30-2322): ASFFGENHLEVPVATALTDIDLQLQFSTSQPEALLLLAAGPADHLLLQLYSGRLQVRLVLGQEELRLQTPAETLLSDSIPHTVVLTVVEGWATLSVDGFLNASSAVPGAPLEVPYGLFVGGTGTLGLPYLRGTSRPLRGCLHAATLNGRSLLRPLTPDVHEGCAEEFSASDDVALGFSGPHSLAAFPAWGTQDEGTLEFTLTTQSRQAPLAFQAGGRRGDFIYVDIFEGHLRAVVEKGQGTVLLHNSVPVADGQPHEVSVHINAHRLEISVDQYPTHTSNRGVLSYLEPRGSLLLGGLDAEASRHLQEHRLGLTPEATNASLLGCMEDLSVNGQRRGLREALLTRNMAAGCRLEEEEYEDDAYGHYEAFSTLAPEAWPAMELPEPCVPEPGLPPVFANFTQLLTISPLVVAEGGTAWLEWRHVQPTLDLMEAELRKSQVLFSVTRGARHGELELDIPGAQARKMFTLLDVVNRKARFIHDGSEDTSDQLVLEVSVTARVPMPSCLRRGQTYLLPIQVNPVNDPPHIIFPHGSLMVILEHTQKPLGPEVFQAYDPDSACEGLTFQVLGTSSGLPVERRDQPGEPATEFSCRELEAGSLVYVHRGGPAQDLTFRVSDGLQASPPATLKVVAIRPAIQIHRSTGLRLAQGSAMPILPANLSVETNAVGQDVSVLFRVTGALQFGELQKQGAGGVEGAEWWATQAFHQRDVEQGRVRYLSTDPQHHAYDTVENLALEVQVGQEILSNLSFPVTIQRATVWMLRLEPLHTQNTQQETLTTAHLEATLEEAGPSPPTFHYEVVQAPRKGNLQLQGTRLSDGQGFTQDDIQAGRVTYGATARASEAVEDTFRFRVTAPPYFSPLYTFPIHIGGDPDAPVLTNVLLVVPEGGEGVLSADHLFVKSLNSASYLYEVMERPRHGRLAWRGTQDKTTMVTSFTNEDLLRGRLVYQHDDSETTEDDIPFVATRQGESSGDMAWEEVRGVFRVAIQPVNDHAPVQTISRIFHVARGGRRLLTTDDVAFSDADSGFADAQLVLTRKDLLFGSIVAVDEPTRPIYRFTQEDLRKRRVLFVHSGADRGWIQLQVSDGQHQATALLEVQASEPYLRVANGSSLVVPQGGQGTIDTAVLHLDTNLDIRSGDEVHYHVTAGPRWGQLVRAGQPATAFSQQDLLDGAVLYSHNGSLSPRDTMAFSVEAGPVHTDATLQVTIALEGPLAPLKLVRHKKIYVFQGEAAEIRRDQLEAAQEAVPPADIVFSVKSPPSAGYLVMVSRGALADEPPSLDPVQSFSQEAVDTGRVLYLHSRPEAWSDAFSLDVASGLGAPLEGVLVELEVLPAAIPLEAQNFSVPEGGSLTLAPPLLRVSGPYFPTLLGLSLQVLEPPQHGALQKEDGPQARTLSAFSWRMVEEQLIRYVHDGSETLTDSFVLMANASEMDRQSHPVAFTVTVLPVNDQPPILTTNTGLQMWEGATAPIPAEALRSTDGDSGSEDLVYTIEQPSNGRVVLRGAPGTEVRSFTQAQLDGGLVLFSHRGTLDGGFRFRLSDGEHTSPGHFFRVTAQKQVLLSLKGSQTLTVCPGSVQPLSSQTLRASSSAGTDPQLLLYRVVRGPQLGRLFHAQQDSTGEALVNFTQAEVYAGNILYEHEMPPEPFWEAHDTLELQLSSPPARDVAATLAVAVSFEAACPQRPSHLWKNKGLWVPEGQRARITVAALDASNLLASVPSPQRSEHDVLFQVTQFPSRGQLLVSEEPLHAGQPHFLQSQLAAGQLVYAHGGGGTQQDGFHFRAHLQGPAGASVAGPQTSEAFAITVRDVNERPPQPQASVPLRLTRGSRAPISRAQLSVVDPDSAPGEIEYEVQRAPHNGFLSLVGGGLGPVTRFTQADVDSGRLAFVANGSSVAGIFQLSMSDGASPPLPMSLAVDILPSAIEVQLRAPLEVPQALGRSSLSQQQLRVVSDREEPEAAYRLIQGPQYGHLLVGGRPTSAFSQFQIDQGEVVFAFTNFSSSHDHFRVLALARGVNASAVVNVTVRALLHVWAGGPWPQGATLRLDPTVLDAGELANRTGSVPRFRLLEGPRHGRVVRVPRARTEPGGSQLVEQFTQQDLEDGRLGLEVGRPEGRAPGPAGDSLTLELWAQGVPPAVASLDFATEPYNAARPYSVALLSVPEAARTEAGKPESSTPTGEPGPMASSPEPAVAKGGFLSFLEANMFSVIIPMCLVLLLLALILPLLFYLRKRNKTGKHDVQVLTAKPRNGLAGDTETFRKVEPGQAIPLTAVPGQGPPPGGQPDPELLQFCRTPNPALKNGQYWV

[4] = target: gp240 antigen (high-molecular-weight glycoprotein gp240 on human melanoma cells) (human) (UniProt Q6UVK1); test: flow cytometry on TXM-18L cells stained with ZME-018 IgG2a and APC goat anti-mouse, against an isotype control
[5] = target: gp240 antigen (high-molecular-weight glycoprotein gp240 on human melanoma cells) (human) (UniProt Q6UVK1); test: flow cytometry on TXM-1 cells (very low gp240) stained with ZME-018 IgG2a and APC goat anti-mouse, against an isotype control
[6] = target: gp240 antigen (high-molecular-weight glycoprotein gp240 on human melanoma cells) (human) (UniProt Q6UVK1); test: flow cytometry on MEL-526 cells stained with ZME-018 IgG2a and APC goat anti-mouse, against an isotype control
[7] = target: gp240 antigen (high-molecular-weight glycoprotein gp240 on human melanoma cells) (human) (UniProt Q6UVK1); test: flow cytometry on A375-M cells stained with ZME-018 IgG2a and APC goat anti-mouse, against an isotype control
parental A375 cells = test: Cytotoxicity on parental and doxorubicin-resistant cells; type: cell-based; details: Homo sapiens, A-375; 72 hours
Procedure: (§2) To examine the cytotoxicity of GrB/scFvMEL or MEL/sFv/rGel, melanoma cells were plated on 96-well plates at a density of 4×10^3 cells per well and allowed to adhere for 24 hr at 37° C. in 5% CO2. After 24 hr, the medium was replaced with medium that contained various concentrations of fusion proteins. […] The percent of control refers to the percentage of cells in the drug-treated wells compared to that of control (untreated) wells.
(§3) Expression of the gp240 antigen was assessed by ELISA using ZME-018 antibody specifically recognizing gp240 antigen.

[8] = test system: A375 doxorubicin-resistant (A375DR); test: as above; type: cell-based; details: Homo sapiens, A-375; 72 hours
Procedure: as §2, §3

[9] = test system: HER-2-overexpressing SKBR-3/H cells; test: Western blot, DNA fragmentation, TUNEL: signal transduction effects; type: cell-based, human; parameters: key to Akt / Caspase-8 cleavage / Caspase-3 cleavage / PARP cleavage / DNA fragmentation / IκB-α / TRADD / TRAF-2: NE represents no effect; details: 200 nM
Procedure: Apoptosis was detected by DNA fragmentation and TUNEL assay. […] After 24 hr and 48 hr, cells were washed with PBS, resuspended in a DNA extraction buffer containing 5 mM Tris-HCl, pH 8, 50 mM EDTA, 10 μg/ml RNAse, and 0.25% SDS and then incubated for 1 hr at 37° C. To remove protein, resuspended cell lysates were treated with 100 μg/ml proteinase K for 3 hr at 50° C. DNA was extracted using phenol and chloroform followed by ethanol precipitation. The genomic DNA was resuspended in Tris-EDTA (pH 8) and was fractionated by electrophoresis on a 1% agarose gel containing ethidium bromide.
The cells were washed with PBS, permeabilized (0.1% Triton X-100, 0.1% sodium citrate), and then fixed in 4% paraformaldehyde. Fixed cells were stained with in situ cell death detection kit (Roche). Cells undergoing apoptosis were identified by fluorescence microscopy.
After treatment, cells were washed twice with phosphate buffered saline (PBS) and lysed on ice for 20 min in 0.3 ml of lysis buffer (10 mM Tris-HCl, pH 8, 60 mM KCl, 1 mM EDTA, 1 mM DTT, 0.2% NP-40). Cell lysates (50 μg) were fractionated by 8-15% SDS-PAGE and electrophoretically transferred to Immobilon-P nitrocellulose membranes (Schleicher & Schuell Inc., Keene, N.H.). Membranes were blocked 2 hrs in Tris-buffered saline (TBS) containing 3% bovine serum albumin and then probed with various antibodies (monoclonal anti-HER-2/neu Ab, rabbit polyclonal anti-TNFR1 Ab, rabbit polyclonal anti-TNFR2 Ab, rabbit polyclonal anti-caspase-8 Ab, monoclonal anti-caspase-3 Ab, monoclonal anti-PARP Ab, rabbit polyclonal anti-TRADD Ab, rabbit polyclonal anti-TRAF2 Ab, rabbit polyclonal anti-IκB-α Ab, rabbit polyclonal anti-phospho Akt Ab, and rabbit polyclonal anti-Akt Ab). Goat anti-mouse/goat anti-rabbit or swain anti-goat antibodies conjugated with horseradish peroxidase (Bio-Rad Laboratories, Hercules, Calif.) were used to visualize immunoreactive proteins at a 1:4000 dilution using ECL detection reagent (Amersham Pharmacia Biotech Inc., Piscataway, N.J.).

[10] = Seq. III: pretreated with GrB/scFvMEL for 6 h, then agent for 72 h
[11] = Seq. IV: agent for 72 h without GrB/scFvMEL pretreatment

O=c1[nH]cc(F)c(=O)[nH]1 [5-Fluorouracil, 5-fluorouracil]
IC50 (Capan-1; Homo sapiens, CAPAN-1): 6 µM | IC50 (AsPc-1; Homo sapiens, ASPC1): 7.5 µM | IC50 (Capan-2; Homo sapiens, Capan-2): 300 µM | IC50 (L3.6pl; Homo sapiens, L3.6pl): 1 µM | IC50 [1]: 1 to 300 µM | antitumor activity on co-administration with GrB/scFvMEL (A375-M Cells): additive | % cytotoxicity (A375-M Cells; [10]): 44.43 ± 2.118% | % cytotoxicity (A375-M Cells; [11]): 21.90 ± 0.794% | Akt (L3.6pl cells): NE | Bcl-2 (L3.6pl cells): NE | inhibition of Bcl-2 expression levels (L3.6pl cells): no impact | p-Akt (L3.6pl cells): NE | Caspase-3 cleavage (L3.6pl cells; 48 hr): NE | Caspase-8 cleavage (L3.6pl cells; 48 hr): NE | PARP cleavage (L3.6pl cells; 48 hr): NE

Nc1ccn([C@@H]2O[C@H](CO)[C@@H](O)[C@@H]2O)c(=O)n1 [Ara C, cytarabine]
antitumor activity on co-administration with GrB/scFvMEL (A375-M Cells): additive | % cytotoxicity (A375-M Cells; [10]): 68.70 ± 0.950% | % cytotoxicity (A375-M Cells; [11]): 62.10 ± 1.054%

N.N.[Cl][Pt][Cl] [Cisplatin]
cytotoxic effect of agent combined with scFv23/TNF [2]: antagonistic cytotoxic effects in 3/4 cell lines | IC50 (Capan-1): 4.5 µM | IC50 (AsPc-1): 14 µM | IC50 (Capan-2): 50 µM | IC50 (L3.6pl): 3.6 µM | antitumor activity on co-administration with GrB/scFvMEL (A375-M Cells): synergistic

CC[C@]1(O)C[C@H]2CN(CCc3c([nH]c4ccccc34)[C@@](C(=O)OC)(c3cc4c(cc3OC)N(C=O)[C@H]3[C@@](O)(C(=O)OC)[C@H](OC(C)=O)[C@]5(CC)C=CCN6CC[C@]43[C@@H]65)C2)C1 [VCR, vincristine]
antitumor activity on co-administration with GrB/scFvMEL (A375-M Cells): synergistic

COc1cc([C@@H]2c3cc4c(cc3[C@@H](O[C@@H]3O[C@@H]5CO[C@@H](C)O[C@H]5[C@H](O)[C@H]3O)[C@H]3COC(=O)[C@H]23)OCO4)cc(OC)c1O [Etoposide]
IC50 (Capan-1; Homo sapiens, CAPAN-1): 2 µM | IC50 (AsPc-1; Homo sapiens, ASPC1): 28 µM | IC50 (Capan-2; Homo sapiens, Capan-2): 40 µM | IC50 (L3.6pl; Homo sapiens, L3.6pl): 2 µM | IC50 [1]: 1 to 300 µM | antitumor activity on co-administration with GrB/scFvMEL (A375-M Cells): additive | % cytotoxicity (A375-M Cells; [10]): 59.80 ± 1.986% | % cytotoxicity (A375-M Cells; [11]): 51.27 ± 1.102%

GrB/scFvMEL fusion construct (from UniProt P10144 21-247)
I.C.50, 72-h cytotoxicity (crystal violet), A375-M cells [3]: 32.1 nM | I.C.50, 72-h cytotoxicity (crystal violet), MEL-526 cells [3]: 50 nM | I.C.50, 72-h cytotoxicity (crystal violet), TXM-1 cells (very low-level gp240 expression) [3]: > 1 µM | I.C.50, 72-h cytotoxicity (crystal violet), TXM-13 cells [3]: 200 nM | I.C.50, 72-h cytotoxicity (crystal violet), TXM-18L cells [3]: 158 nM

monoclonal antibody ZME-018 IgG2a
Gp240 Antigen % positive [4]: 40.9% | Gp240 Antigen % positive [5]: 4.6% | Gp240 Antigen % positive [6]: 97.8% | Gp240 Antigen % positive [7]: 98.9%

Nc1ccn([C@@H]2O[C@H](CO)[C@@H](O)C2(F)F)c(=O)n1 [Gemcitabine]
cytotoxic effect of agent combined with scFv23/TNF [2]: antagonistic cytotoxic effects in 3/4 cell lines | IC50 (Capan-1; Homo sapiens, CAPAN-1): 0.02 µM | IC50 (AsPc-1; Homo sapiens, ASPC1): 0.2 µM | IC50 (Capan-2; Homo sapiens, Capan-2): 0.15 µM | IC50 (L3.6pl; Homo sapiens, L3.6pl): 0.006 µM | IC50 [1]: 0.006 to 0.7 µM

COc1cccc2c1C(=O)c1c(O)c3c(c(O)c1C2=O)C[C@@](O)(C(=O)CO)C[C@@H]3O[C@H]1C[C@H](N)[C@H](O)[C@H](C)O1 [Doxorubicin]
IC50 (Capan-1; Homo sapiens, CAPAN-1): 0.06 µM | IC50 (AsPc-1; Homo sapiens, ASPC1): 0.32 µM | IC50 (Capan-2; Homo sapiens, Capan-2): 0.5 µM | IC50 (L3.6pl; Homo sapiens, L3.6pl): 0.03 µM | IC50 [1]: 0.006 to 0.7 µM | antitumor activity on co-administration with GrB/scFvMEL (A375-M Cells): synergistic | % cytotoxicity (A375-M Cells; [10]): 33.73 ± 1.590% | % cytotoxicity (A375-M Cells; [11]): 30.33 ± 1.093% | IC50 (parental A375 cells): 0.0005 µM | IC50 [8]: 0.2 µM

B1: scFv23: single chain antibody recognizing the cell surface domain of HER-2/neu (protein)
scFv: DVQLTQSPAILSASPGEKVTMTCRATPSVSYMHWYQQKPGSSPKPWIYTTSNLASGVPARFSGGGSGTSYSLTVSRVEAEDAATYYCQQWSRSPPTFGGGSKLEIKGSTSGSGKSSEGKGVQLQESGPEVVKPGGSMKISCKTSGYSFTGHTMNWVKQSHGKNLEWIGLINPYNGDTNYNQKFKGKATFTVDKSSSTAYMELLSLTSEDSAVYYCARRVTDWYFDVWGAGTTVTVSS
Akt [9]: NE | Caspase-3 cleavage [9]: NE | Caspase-8 cleavage [9]: NE | DNA fragmentation [9]: NE | IκB-α [9]: NE* | PARP cleavage [9]: NE | TRADD [9]: NE | TRAF-2 [9]: NE | p-Akt [9]: ↑
